Laboratory results from US20210179578A1, “OX1 ANTAGONISTS” (Heptares Therapeutics Limited, priority 2017, published 2021).

Key:
human OX1 receptor = target: T1, human OX1 receptor (Homo sapiens, UniProt O43613); test: IPone accumulation assay, CHO cells expressing OX1 (antagonism of orexin A); type: cell-based; settings: IPone accumulation, CHO human OX1, orexin A EC80 challenge (~20 nM); read-out: fpKb average OX1 (converted)
T1 sequence (O43613 1-425): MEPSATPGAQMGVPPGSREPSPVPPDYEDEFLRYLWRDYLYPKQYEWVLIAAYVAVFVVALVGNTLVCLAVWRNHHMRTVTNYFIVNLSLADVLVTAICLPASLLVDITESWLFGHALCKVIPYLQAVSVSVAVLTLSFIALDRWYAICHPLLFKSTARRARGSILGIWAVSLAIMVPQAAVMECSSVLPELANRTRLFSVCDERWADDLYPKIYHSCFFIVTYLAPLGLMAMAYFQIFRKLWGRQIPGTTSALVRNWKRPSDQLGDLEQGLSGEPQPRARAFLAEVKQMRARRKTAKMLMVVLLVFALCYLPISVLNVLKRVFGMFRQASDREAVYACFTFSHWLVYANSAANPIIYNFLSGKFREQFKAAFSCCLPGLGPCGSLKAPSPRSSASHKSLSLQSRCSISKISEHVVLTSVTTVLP
Method: Generation of CHO stable cell lines expressing the human OX1R and OX2R. Stable cell lines for the human OX1R and OX2R receptors were generated through the transfection of CHO cells using the transfection reagent Genejuice (Novagen number 70967) and cDNA coding for either the human OX1R or OX2R. Cells were cultured in Sigma Nutrient Mixture F-12 Ham media (catalog number N6658) supplemented with 10% heat-inactivated FBS. Forty-eight hours after transfection, cells were harvested and placed under geneticin selection by culturing in Sigma Nutrient Mixture F-12 Ham media supplemented with 10% heat-inactivated FBS and geneticin (ThermoFisher Catalog number: 10131035). Selection of the final stable clone for each receptor was made on the basis of receptor expression, assay signal to noise and robustness though increasing passage. Selected clones for the human OX1R and OX2R were then frozen down into liquid nitrogen using Cell Freezing Medium-DMSO (Sigma-Aldrich catalog number: C6164). IPone accumulation assay. A CHO cell line stably expressing either human OX1 or OX2 receptor was used with the IPone HTRF assay kit (CisBio: Part #62[…]) to measure receptor activation. The assay was optimised to measure the ability (potency; fpKb) of antagonists to reduce agonist (orexin A)-induced inositol phosphate turnover. Briefly, cells were plated onto half area 96-well white walled plates at a density of 12,500 cells/well. Sixteen hours post-plating cell growth media was replaced with antagonist concentration-response curve diluted in stimulation buffer (supplied with the kit). Cells were incubated in a humidified incubator (37° C.) for 30 min before an EC80 challenge concentration ( 20 nM (OX1) and 40 nM (OX2)) of orexin A (Tocris catalogue number 1455). After 30 min stimulation in a humidified incubator (37° C.) the assay was terminated by the addition of detection mixture as per manufacturer's instructions. The concentration of compound which reduced orexin-A stimulated turnover of inositol phosphates by 50% (IC50) was calculated by fitting to a four parameter sigmoidal dose response curve. The IC50 values were converted to fpKB values using the orexin A pEC50 value estimated on each plate as well as the challenge concentration interpolated from the orexin A control curve.

human OX2 receptor = target: T2, human OX2 receptor (Homo sapiens, UniProt O43614); test: IPone accumulation assay, CHO cells expressing OX2 (antagonism of orexin A); type: cell-based; settings: CHO human OX2, orexin A EC80 challenge (40 nM), read-out: fpKb average OX2 (converted)
T2 sequence (O43614 1-444): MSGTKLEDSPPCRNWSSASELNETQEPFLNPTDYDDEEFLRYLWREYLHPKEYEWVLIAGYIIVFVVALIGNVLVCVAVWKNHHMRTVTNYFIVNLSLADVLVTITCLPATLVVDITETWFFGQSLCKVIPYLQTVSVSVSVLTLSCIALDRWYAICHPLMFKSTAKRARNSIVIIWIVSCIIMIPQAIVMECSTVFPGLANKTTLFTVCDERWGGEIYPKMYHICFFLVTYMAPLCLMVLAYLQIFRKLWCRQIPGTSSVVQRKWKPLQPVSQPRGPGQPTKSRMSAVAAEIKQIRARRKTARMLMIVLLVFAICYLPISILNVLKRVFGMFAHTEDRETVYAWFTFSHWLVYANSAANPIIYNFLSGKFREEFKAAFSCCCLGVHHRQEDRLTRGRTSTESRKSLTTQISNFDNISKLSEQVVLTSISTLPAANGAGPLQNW
Method: Generation of CHO stable cell lines expressing the human OX1R and OX2R. Stable cell lines for the human OX1R and OX2R receptors were generated through the transfection of CHO cells using the transfection reagent Genejuice (Novagen number 70967) and cDNA coding for either the human OX1R or OX2R. Cells were cultured in Sigma Nutrient Mixture F-12 Ham media (catalog number N6658) supplemented with 10% heat-inactivated FBS. Forty-eight hours after transfection, cells were harvested and placed under geneticin selection by culturing in Sigma Nutrient Mixture F-12 Ham media supplemented with 10% heat-inactivated FBS and geneticin (ThermoFisher Catalog number: 10131035). Selection of the final stable clone for each receptor was made on the basis of receptor expression, assay signal to noise and robustness though increasing passage. Selected clones for the human OX1R and OX2R were then frozen down into liquid nitrogen using Cell Freezing Medium-DMSO (Sigma-Aldrich catalog number: C6164).
IPone accumulation assay. A CHO cell line stably expressing either human OX1 or OX2 receptor was used with the IPone HTRF assay kit (CisBio: Part #62IPAPEJ) to measure receptor activation. The assay was optimised to measure the ability (potency; fpKb) of antagonists to reduce agonist (orexin A)-induced inositol phosphate turnover. Briefly, cells were plated onto half area 96-well white walled plates at a density of 12,500 cells/well. Sixteen hours post-plating cell growth media was replaced with antagonist concentration-response curve diluted in stimulation buffer (supplied with the kit). Cells were incubated in a humidified incubator (37° C.) for 30 min before an EC80 challenge concentration (˜20 nM (OX1) and 40 nM (OX2)) of orexin A (Tocris catalogue number 1455). After 30 min stimulation in a humidified incubator (37° C.) the assay was terminated by the addition of detection mixture as per manufacturer's instructions. The concentration of compound which reduced orexin-A stimulated turnover of inositol phosphates by 50% (IC50) was calculated by fitting to a four parameter sigmoidal dose response curve. The IC50 values were converted to fpKB values using the orexin A pEC50 value estimated on each plate as well as the challenge concentration interpolated from the orexin A control curve.

Kb (human OX1 receptor) [nM]	Kb (human OX2 receptor) [nM]	SMILES
39.8	794	Cc1cc(C)c(S(C)(=O)=O)cc1N1CCc2ccccc2N(Cc2c(F)cc(OC(C)C)cc2F)C1=O [Example 30, 1-[2,6-difluoro-4-(propan-2-yloxy)benzyl]-3-[2,4-dimethyl-5-(methylsulfonyl)phenyl]-1,3,4,5-tetrahydro-2H-1,3-benzodiazepin-2-one]
20	> 2000	Cc1ncc(C2CCc3c(F)cccc3N(Cc3c(F)cc(Br)cc3F)C2=O)cc1C(C)(F)F (single isomer, unassigned) [Example 36, 1-(4-bromo-2,6-difluorobenzyl)-3-[5-(1,1-difluoroethyl)-6-methylpyridin-3-yl]-6-fluoro-1,3,4,5-tetrahydro-2H-1-benzazepin-2-one]
126	> 3160	Cc1ccc(N2CCc3c(F)cccc3N(Cc3c(F)cc(Br)cc3F)C2=O)cc1S(C)(=O)=O [Example 27, 1-(4-bromo-2,6-difluorobenzyl)-6-fluoro-3-[4-methyl-3-(methylsulfonyl)phenyl]-1,3,4,5-tetrahydro-2H-1,3-benzodiazepin-2-one]
10	> 3980	COc1cc(F)c(CN2C(=O)N(c3cc(S(C)(=O)=O)c(OC)nc3OC)CCc3c(F)cccc32)c(F)c1 [Example 25, 1-(2,6-difluoro-4-methoxybenzyl)-3-[2,6-dimethoxy-5-(methylsulfonyl)pyridin-3-yl]-6-fluoro-1,3,4,5-tetrahydro-2H-1,3-benzodiazepin-2-one]
20	> 3980	[2H]C([2H])([2H])Oc1ncc(N2CCc3c(F)cccc3N(Cc3c(F)cc(Br)cc3F)C2=O)cc1C(C)(F)F [Example 2, 1-(4-bromo-2,6-difluorobenzyl)-3-{5-(1,1-difluoroethyl)-6-[(^2H3)methyloxy]pyridin-3-yl}-6-fluoro-1,3,4,5-tetrahydro-2H-1,3-benzodiazepin-2-one]
3.16	> 316	COc1cc(F)c(CN2C(=O)N(c3cnc(OC)c(C(C)(F)F)c3)CCc3c(F)cccc32)c(F)c1 [Example 8, 3-[5-(1,1-difluoroethyl)-6-methoxypyridin-3-yl]-1-(2,6-difluoro-4-methoxybenzyl)-6-fluoro-1,3,4,5-tetrahydro-2H-1,3-benzodiazepin-2-one]
50.1	> 794	COc1ncc(N2CCc3c(F)cccc3N(Cc3c(F)cc(Br)cc3F)C2=O)cc1C(C)(F)F [Example 3, 1-(4-bromo-2,6-difluorobenzyl)-3-[5-(1,1-difluoroethyl)-6-methoxypyridin-3-yl]-6-fluoro-1,3,4,5-tetrahydro-2H-1,3-benzodiazepin-2-one]
25.1	> 2510	COc1ncc(N2CCc3c(F)cccc3N(Cc3ccc(Br)cc3F)C2=O)cc1C(C)(F)F [Example 10, 1-(4-bromo-2-fluorobenzyl)-3-[5-(1,1-difluoroethyl)-6-methoxypyridin-3-yl]-6-fluoro-1,3,4,5-tetrahydro-2H-1,3-benzodiazepin-2-one]
63.1	> 3160	COCc1cc(F)c(CN2C(=O)N(c3cc(C(C)(F)F)c(OC)nc3OC)CCc3c(F)cccc32)c(F)c1 [Example 24, 3-[5-(1,1-difluoroethyl)-2,6-dimethoxypyridin-3-yl]-1-[2,6-difluoro-4-(methoxymethyl)benzyl]-6-fluoro-1,3,4,5-tetrahydro-2H-1,3-benzodiazepin-2-one]
10	> 1000	COc1ncc(C2CCc3c(F)cccc3N(Cc3c(F)cc(Cl)cc3F)C2=O)cc1S(C)(=O)=O (single isomer, unassigned) [Example 22, 1-(4-chloro-2,6-difluorobenzyl)-6-fluoro-3-[6-methoxy-5-(methylsulfonyl)pyridin-3-yl]-1,3,4,5-tetrahydro-2H-1-benzazepin-2-one]
